# Assay results from patent US20240173330A1, “USE OF ATR INHIBITORS IN COMBINATION WITH PARP INHIBITORS FOR TREATING CANCER” (Repare Therapeutics Inc., priority 2021, published 2024).
# Key:
# Format in all cases: cell-based
# [1] = tested on: isogenic cell lines lacking CDK12 or BRCA2; assay: 48-hr combination treatment of isogenic cell lines lacking CDK12 or BRCA2; conditions: 48-hr treatment with combination
# Source text: The optimized dosing schedule may be applicable to cells carrying mutations not only in RNASEH2B, but additional genes.
# [2] = tested on: RNASEH2B+/+ and RNASEH2B−/− cells; assay: Synergy between ATR inhibitor and PARP inhibitor in RNASEH2B+/+ and RNASEH2B−/− cells; conditions: combination of ATR inhibitor and PARP inhibitor
# Source text: An ATR inhibitor (e.g., compound 121) may synergize with a PARP inhibitor (e.g., 5-[4-[(7-ethyl-6-oxo-5H-1,5-naphthyridin-3-yl)methyl]piperazin-1-yl]-N-methyl-pyridine-2-carboxamide) in RNASEH2B+/+ and RNASEH2B−/− cells. Importantly, in RNASEH2B−/− cells, synergy (e.g., maximum synergy) may be achieved at lower concentrations of an ATR inhibitor (e.g., compound 121) and lower concentrations of the PARP inhibitor (e.g., 5-[4-[(7-ethyl-6-oxo-5H-1,5-naphthyridin-3-yl)methyl]piperazin-1-yl]-N-methyl-pyridine-2-carboxamide) than in RNASEH2B+/+ cells. As a result, the apparent IC50 of the PARP inhibitor may shift in the presence of the ATR inhibitor (e.g., compound 121).
# In addition to selecting a sensitized genetic background, tolerability of the combination treatment with an ATR inhibitor and PARP inhibitor can be improved by optimizing dosing schedules (Fang et al., Cancer Cell, 35:851-867, 2019). To guide the combined dosing of the ATR inhibitor (e.g., compound 121) and the PARP inhibitor (e.g., 5-[4-[(7-ethyl-6-oxo-5H-1,5-naphthyridin-3-yl)methyl]piperazin-1-yl]-N-methyl-pyridine-2-carboxamide) in RNASEH2B-deficient tumor cells, a continuous longer (e.g., 168 h) concomitant treatment of RNASEH2B+/+ and −/− cells with both compounds may be compared to a shorter (e.g., either a 48 or 72 h) treatment followed by removal of compounds and growth in drug-free media. […]
# [3] = tested on: tumor cells that employ the Alternative Lengthening of Telomeres (ALT) mechanism; assay: Combination against ALT tumor cells; conditions: combination of ATR inhibitor with PARP inhibitor
# Source text: In addition to tumors carrying the above-mentioned genetic alterations, the combination of ATR inhibitors (e.g., Compound 121) with PARP inhibitors (e.g., 5-[4-[(7-ethyl-6-oxo-5H-1,5-naphthyridin-3-yl)methyl]piperazin-1-yl]-N-methyl-pyridine-2-carboxamide) may be effective against tumor cells that employ the Alternative Lengthening of Telomeres (ALT) mechanism.
Compound,synergistic sensitization [1],synergy of ATR inhibitor with PARP inhibitor [2],effectiveness of combination against ALT tumor cells [3]
"CCc1cc2ncc(CN3CCN(c4ccc(C(=O)NC)nc4)CC3)cc2[nH]c1=O [5-[4-[(7-ethyl-6-oxo-5H-1,5-naphthyridin-3-yl)methyl]piperazin-1-yl]-N-methyl-pyridine-2-carboxamide]",synergistically sensitize,synergize,effective
C[C@@H]1COCCN1c1cc([C@@]2(O)C[C@H]3CC[C@@H](C2)O3)c2cnn(-c3cc[nH]n3)c2n1 [compound 121],synergistically sensitize,synergize,effective
